Laboratory results published in PubChem BioAssay AID328 (DTP/NCI, 2004).
Where “and” joins values, the source holds several entries; their conditions need not be identical. Identical values can stand only once. Toxic doses and inconclusive results are not listed.

Tested on: BDF1 mice, P388 leukemia ip, median survival T/C
Assay: NCI In Vivo Anticancer Drug Screen. Data for tumor model P388 Leukemia (intraperitoneal) in B6D2F1 (BDF1) mice
Details: endpoint: median survival time, higher = longer survival
How it was run: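 T/C = treated-group survival ÷ vehicle-control survival; tumour transplanted into mice before dosing.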

[1] = dose: 12.5 mg/kg/injection, schedule: Q01DX009 (ip), vehicle: saline with Tween-80
[2] = dose: 25.0 mg/kg/injection, schedule: Q01DX009 (ip), vehicle: saline with Tween-80
[3] = dose: 50.0 mg/kg/injection, schedule: Q01DX009 (ip), vehicle: saline with Tween-80
[4] = dose: 100.0 mg/kg/injection, schedule: Q01DX009 (ip), vehicle: Klucel (hydroxypropylcellulose) (HPC)
[5] = dose: 100.0 mg/kg/injection, schedule: Q04DX003 (ip), vehicle: Klucel (hydroxypropylcellulose) (HPC)
[6] = dose: 200.0 mg/kg/injection, schedule: Q01DX009 (ip), vehicle: Klucel (hydroxypropylcellulose) (HPC)
[7] = dose: 200.0 mg/kg/injection, schedule: Q04DX003 (ip), vehicle: Klucel (hydroxypropylcellulose) (HPC)
[8] = dose: 400.0 mg/kg/injection, schedule: Q01DX009 (ip), vehicle: Klucel (hydroxypropylcellulose) (HPC)
[9] = dose: 400.0 mg/kg/injection, schedule: Q04DX003 (ip), vehicle: Klucel (hydroxypropylcellulose) (HPC)
[10] = dose: 100.0 mg/kg/injection, schedule: Q01DX009 (ip), vehicle: saline with Tween-80
[11] = dose: 200.0 mg/kg/injection, schedule: Q01DX009 (ip), vehicle: saline with Tween-80
[12] = dose: 100.0 mg/kg/injection, schedule: Q04DX003 (ip), vehicle: saline with Tween-80
[13] = dose: 200.0 mg/kg/injection, schedule: Q04DX003 (ip), vehicle: saline with Tween-80
[14] = dose: 400.0 mg/kg/injection, schedule: Q04DX003 (ip), vehicle: saline with Tween-80
[15] = dose: 12.5 mg/kg/injection, schedule: Q01DX009 (ip), vehicle: saline
[16] = dose: 25.0 mg/kg/injection, schedule: Q01DX009 (ip), vehicle: saline
[17] = dose: 50.0 mg/kg/injection, schedule: Q01DX009 (ip), vehicle: saline
[18] = dose: 50.0 mg/kg/injection, schedule: Q01DX009 (ip), vehicle: Klucel (hydroxypropylcellulose) (HPC)
[19] = dose: 400.0 mg/kg/injection, schedule: Q01DX009 (ip), vehicle: saline with Tween-80
[20] = dose: 100.0 mg/kg/injection, schedule: Q01DX009 (ip), vehicle: saline
[21] = dose: 100.0 mg/kg/injection, schedule: Q04DX003 (ip), vehicle: saline
[22] = dose: 200.0 mg/kg/injection, schedule: Q04DX003 (ip), vehicle: saline

## Cc1ccc(Cc2c(C=O)nc(N)[nH]c2=O)c2ccccc12
[1]
  T/C: 112 % of control
[2]
  T/C: 96 % of control
[3]
  T/C: 102 % of control
dose: 50.0 mg/kg/injection, schedule: Q01DX009 (ip), vehicle: suspension in saline
  T/C: 97 % of control
dose: 100.0 mg/kg/injection, schedule: Q01DX009 (ip), vehicle: suspension in saline
  T/C: 94 % of control
dose: 200.0 mg/kg/injection, schedule: Q01DX009 (ip), vehicle: suspension in saline
  T/C: 106 % of control

## c1ccc(C2=C(c3ccccc3)C23SCCS3)cc1
[4]
  T/C: 113 % of control
[5]
  T/C: 104 % of control
[6]
  T/C: 95 % of control
[7]
  T/C: 113 % of control
[8]
  T/C: 86 % of control
[9]
  T/C: 100 % of control

## Cc1c(O)c([N+](=O)[O-])cc2c1OCOC2
[4]
  T/C: 95 % of control
[6]
  T/C: 104 % of control
[8]
  T/C: 95 % of control

## N#Cc1nc2c(n(O)c1=N)CCCCCCCCCC2
[3]
  T/C: 95 % of control
[10]
  T/C: 92 % of control
[11]
  T/C: 92 % of control

## C#C[C@]1(O)CC[C@H]2[C@@H]3CCc4cc(O)ccc4[C@H]3CC[C@@]21C
[4]
  T/C: 95 % of control
[5]
  T/C: 104 % of control
[6]
  T/C: 87 % of control
[7]
  T/C: 104 % of control
[9]
  T/C: 95 % of control

## Cn1c2ccccc2c(=O)c2ccc(Cl)cc21
[12]
  T/C: 105 % of control
[13]
  T/C: 105 % of control
[14]
  T/C: 100 % of control

## CS(=O)(=O)CC(O)(c1ccccc1)c1ccccn1 (centres undefined)
[3]
  T/C: 90 % of control
[10]
  T/C: 89 % of control
[11]
  T/C: 89 % of control

## BrC(Br)c1ccc2ccccc2n1
[4]
  T/C: 108 % of control
[5]
  T/C: 100 % of control
[6]
  T/C: 108 % of control
[7]
  T/C: 91 % of control
[8]
  T/C: 95 % of control
[9]
  T/C: 91 % of control

## COc1cccc(CC2=NCCc3cc(OC)c(OC)cc32)c1
dose: 6.25 mg/kg/injection, schedule: Q01DX009 (ip), vehicle: saline
  T/C: 108 % of control
[15]
  T/C: 94 % of control
[16]
  T/C: 94 % of control
dose: 25.0 mg/kg/injection, schedule: Q04DX003 (ip), vehicle: saline
  T/C: 87 % of control
[17]
  T/C: 95 % of control and 98 % of control
dose: 50.0 mg/kg/injection, schedule: Q04DX003 (ip), vehicle: saline
  T/C: 91 % of control

## CCN(C(=O)CCl)C(C)(C)C(SSSC(c1ccc(Cl)cc1)C(C)(C)N(CC)C(=O)CCl)c1ccc(Cl)cc1 (centres undefined)
[15]
  T/C: 118 % of control
dose: 16.5 mg/kg/injection, schedule: Q01DX009 (ip), vehicle: saline
  T/C: 116 % of control
[16]
  T/C: 116 % of control
dose: 37.5 mg/kg/injection, schedule: Q01DX009 (ip), vehicle: saline
  T/C: 116 % of control
[17]
  T/C: 118 % of control

## O=S1(=O)CCN(CCc2ccccc2)CC1
[18]
  T/C: 94 % of control
[4]
  T/C: 90 % of control
[6]
  T/C: 96 % of control

## CCOC(=N)CC(=N)OCC
dose: 100.0 mg/kg/injection, schedule: Q01DX009 (ip), vehicle: water
  T/C: 103 % of control
dose: 100.0 mg/kg/injection, schedule: Q04DX003 (ip), vehicle: water
  T/C: 104 % of control
dose: 200.0 mg/kg/injection, schedule: Q01DX009 (ip), vehicle: water
  T/C: 103 % of control
dose: 200.0 mg/kg/injection, schedule: Q04DX003 (ip), vehicle: water
  T/C: 100 % of control
dose: 400.0 mg/kg/injection, schedule: Q01DX009 (ip), vehicle: water
  T/C: 101 % of control
dose: 400.0 mg/kg/injection, schedule: Q04DX003 (ip), vehicle: water
  T/C: 100 % of control

## C/C(N=Nc1ccccc1[N+](=O)[O-])=N\Nc1ccccc1
[5]
  T/C: 122 % of control
[7]
  T/C: 122 % of control
[9]
  T/C: 113 % of control

## C[N+](C)(Cc1ccccc1)CC(O)COc1ccccc1 (centres undefined)
[1]
  T/C: 96 % of control
dose: 12.5 mg/kg/injection, schedule: Q04DX003 (ip), vehicle: saline with Tween-80
  T/C: 118 % of control
[2]
  T/C: 103 % of control
dose: 25.0 mg/kg/injection, schedule: Q04DX003 (ip), vehicle: saline with Tween-80
  T/C: 113 % of control
dose: 50.0 mg/kg/injection, schedule: Q04DX003 (ip), vehicle: saline with Tween-80
  T/C: 104 % of control

## O=c1c2ccccc2[nH]c2ccc(Cl)cc12
[10]
  T/C: 97 % of control
[11]
  T/C: 98 % of control
[19]
  T/C: 89 % of control

## NC(=O)NN=C1CCC(c2ccccc2)CC1 (centres undefined)
[3]
  T/C: 112 % of control
[10]
  T/C: 112 % of control

## O=C1C=CC(=O)c2c(O)cccc21
dose: 1.56 mg/kg/injection, schedule: Q01DX009 (ip), vehicle: saline with Tween-80
  T/C: 90 % of control
dose: 3.13 mg/kg/injection, schedule: Q01DX009 (ip), vehicle: saline with Tween-80
  T/C: 95 % of control
dose: 6.25 mg/kg/injection, schedule: Q01DX009 (ip), vehicle: saline with Tween-80
  T/C: 95 % of control

## CCOC(=O)c1cc2sccc2[nH]1
[10]
  T/C: 103 % of control
[12]
  T/C: 104 % of control
[11]
  T/C: 100 % of control
[13]
  T/C: 109 % of control
[19]
  T/C: 115 % of control
[14]
  T/C: 113 % of control

## O=c1nc(-c2ccccc2)nc2ccccn12
[3]
  T/C: 101 % of control
[10]
  T/C: 106 % of control
[11]
  T/C: 111 % of control

## O=C1C2CCCCC1C(N1CCCC1)CC2 (centres undefined)
dose: 100.0 mg/kg/injection, schedule: Q04DX003 (sc), vehicle: olive oil, sesame oil, peanut oil
  T/C: 100 % of control
dose: 200.0 mg/kg/injection, schedule: Q04DX003 (sc), vehicle: olive oil, sesame oil, peanut oil
  T/C: 86 % of control
dose: 400.0 mg/kg/injection, schedule: Q04DX003 (sc), vehicle: olive oil, sesame oil, peanut oil
  T/C: 100 % of control

## CCC1NC(=O)C(NC(=O)c2ncccc2O)C(C)OC(=O)C(c2ccccc2)NC(=O)C2CC(=O)CCN2C(=O)C(Cc2ccccc2)N(C)C(=O)C2CCCN2C1=O (centres undefined) (tested in a mixture with another compound)
dose: 18.75 mg/kg/injection, schedule: Q01DX009 (ip), vehicle: Klucel (hydroxypropylcellulose) (HPC)
  T/C: 99 % of control
dose: 37.5 mg/kg/injection, schedule: Q01DX009 (ip), vehicle: Klucel (hydroxypropylcellulose) (HPC)
  T/C: 105 % of control
dose: 75.0 mg/kg/injection, schedule: Q01DX009 (ip), vehicle: Klucel (hydroxypropylcellulose) (HPC)
  T/C: 111 % of control

## NS(=O)(=O)c1ccc(NC2OCC(O)C(O)C2O)cc1 (centres undefined)
[10]
  T/C: 95 % of control
[11]
  T/C: 90 % of control
[19]
  T/C: 100 % of control

## CCS(=O)(=O)OCCCl
dose: 25.0 mg/kg/injection, schedule: Q01DX009 (ip), vehicle: Klucel (hydroxypropylcellulose) (HPC)
  T/C: 100 % of control
dose: 44.0 mg/kg/injection, schedule: Q01DX009 (ip), vehicle: saline
  T/C: 104 % of control
[18]
  T/C: 100 % of control
[3]
  T/C: 103 % of control
[17]
  T/C: 161 % of control
dose: 66.0 mg/kg/injection, schedule: Q01DX009 (ip), vehicle: saline
  T/C: 108 % of control
[4]
  T/C: 105 % of control
[10]
  T/C: 104 % of control
[20]
  T/C: 230 % of control and 95 % of control and 108 % of control
[21]
  T/C: 100 % of control
dose: 150.0 mg/kg/injection, schedule: Q01DX009 (ip), vehicle: saline
  T/C: 120 % of control
[11]
  T/C: 116 % of control
[22]
  T/C: 91 % of control

## O=C1c2ccccc2C(=O)c2cc3cc(Cl)ccc3cc21
[5]
  T/C: 90 % of control
[7]
  T/C: 90 % of control
[9]
  T/C: 90 % of control

## CN(C)CCCNc1c2ccccc2nc2cccc([N+](=O)[O-])c12
dose: 0.2 mg/kg/injection, schedule: Q04DX003 (ip), vehicle: saline
  T/C: 124 % of control
dose: 0.5 mg/kg/injection, schedule: Q04DX003 (ip), vehicle: saline
  T/C: 101 % of control

## CC1(C)N=C(N)N=C(N)N1c1ccc(CNC(=O)Nc2ccc(S(=O)(=O)F)cc2)cc1
[20]
  T/C: 115 % of control
[21]
  T/C: 150 % of control
dose: 132.0 mg/kg/injection, schedule: Q04DX003 (ip), vehicle: saline
  T/C: 181 % of control and 190 % of control
dose: 200.0 mg/kg/injection, schedule: Q01DX009 (ip), vehicle: saline
  T/C: 100 % of control
[22]
  T/C: 150 % of control and 177 % of control and 205 % of control
dose: 300.0 mg/kg/injection, schedule: Q04DX003 (ip), vehicle: saline
  T/C: 230 % of control and 154 % of control
dose: 400.0 mg/kg/injection, schedule: Q04DX003 (ip), vehicle: saline
  T/C: 163 % of control
